Measurements: US20160176867A1, “MODIFIED BET-PROTEIN-INHIBITING DIHYDROQUINOXALINONES AND DIHYDROPYRIDOPYRAZINONES” (BAYER PHARMA AKTIENGESELLSCHAFT, priority 2013, published 2016)

How the values were obtained:
[1] = molecular target: T1, BRD4 bromo domain 2 [BRD4(2)] (Homo sapiens, UniProt O60885); experiment: BRD4/acetylated peptide H4 binding assay (TR-FRET), BRD4 bromo domain 2; conditions: inhibition of BRD4(2)/Ac-H4 peptide interaction
T1 construct: N-terminally His6-tagged BRD4(2) (amino acids 357-445); made in house; host or cells: E. coli
In short: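 Binding of His6-BRD4(2) (aa 357-445, 100 nM final) to biotinylated tetra-acetylated H4 peptide read by TR-FRET (665/620 nm). Compound preincubated 10 min at 22 °C, then 1 h at 22 °C plus ≥3 h at 4 °C. Eleven concentrations (0.1 nM–20 μM) in duplicate; IC50 by 4-parameter fit.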

B16F10 cells = experiment: Cell proliferation assay (alamarBlue), B16F10; format: cell-based; conditions: Mus musculus, B16-F10; B16F10 (melanoma, BRAF wild-type), 96 hours
Description: (§1) In accordance with the invention, the ability of the substances to inhibit cell proliferation was determined. Cell viability was determined by means of the alamarBlue® reagent (Invitrogen) in a Victor X3 Multilabel Reader (Perkin Elmer). The excitation wavelength was 530 nm and the emission wavelength […].
The B16F10 cells (ATCC, CRL-6475) were sown at a concentration of 300-500 cells/well in 100 μl of growth medium (DMEM with phenol red, 10% FCS) on 96-well microtitre plates.
(§2) After overnight incubation at 37° C., the fluorescence values were determined (CI values). Then the plates were treated with various substance dilutions (1E-5 M, 3E-6 M, 1E-6 M, 3E-7 M, 1E-7 M, 3E-8 M, 1E-8 M) and incubated at 37° C. over 96 hours (MOLM-13, B16F10, CHL-1 cells) or 120 hours (MOLP-8 cells). Subsequently, the fluorescence values were determined (CO values). For the data analysis, the CI values were subtracted from the CO values and the results were compared between cells which had been treated with various dilutions of the substance or only with buffer solution. The IC50 values (substance concentration needed for 50% inhibition of cell proliferation) were calculated therefrom.

MOLM-13 cells = experiment: Cell proliferation assay (alamarBlue), MOLM-13; format: cell-based; conditions: Homo sapiens; MOLM-13 (acute myeloid leukaemia), 96 hours
Description: as §1
The MOLM-13 cells (DSMZ, ACC 554) were sown at a concentration of 4000 cells/well in 100 μl of growth medium (RPMI1640, 10% FCS) on 96-well microtitre plates.
as §2

MOLP-8 cells = experiment: Cell proliferation assay (alamarBlue), MOLP-8; format: cell-based; conditions: Homo sapiens; MOLP-8 (multiple myeloma), 120 hours
Description: as §1
The MOLP-8 cells (DSMZ, ACC 569) were sown at a concentration of 4000 cells/well in 100 μl of growth medium (RPMI1640, 20% FCS) on 96-well microtitre plates.
as §2

CHL-1 cells = experiment: Cell proliferation assay (alamarBlue), CHL-1; format: cell-based; conditions: Homo sapiens; CHL-1 (melanoma, BRAF wild-type), 96 hours
Description: as §1
The CHL-1 cells (ATCC, CRL-9446) were sown at a concentration of 1000 cells/well in 100 μl of growth medium (DMEM with glutamine, 10% FCS) on 96-well microtitre plates.
as §2

| SMILES | IC50 [1] | IC50 (B16F10 cells) | IC50 (MOLM-13 cells) | IC50 (MOLP-8 cells) | IC50 (CHL-1 cells) |
| --- | --- | --- | --- | --- | --- |
| C[C@@H]1C(=O)N(C)c2ccc(Nc3cccc(S(=O)(=O)N4CCN(CC(F)(F)F)CC4)c3)nc2N1C1CCNCC1 [Example 126, (3R)-1,3-dimethyl-4-(piperidin-4-yl)-6-[(3-{[4-(2,2,2-trifluoroethyl)piperazin-1-yl]sulphonyl}phenyl)amino]-3,4-dihydropyrido[2,3-b]pyrazin-2(1H)-one] | 86 nM | 1160 nM | 84 nM | 130 nM | 202 nM |
| C[C@@H]1C(=O)N(C)c2ccc(Nc3cccc(C(=O)N[C@H]4CC[C@H](N5CCN(CC6CC6)CC5)CC4)c3)nc2N1Cc1ccccc1 [Example 72, 3-{[(3R)-4-benzyl-1,3-dimethyl-2-oxo-1,2,3,4-tetrahydropyrido[2,3-b]pyrazin-6-yl]amino}-N-{trans-4-[4-(cyclo-propylmethyl)piperazin-1-yl]cyclohexyl}benzamide] | 256 nM | 396 nM | 250 nM | 122 nM | 106 nM |
| C[C@@H]1C(=O)N(C)c2ccc(Nc3cccc(S(=O)(=O)N[C@H]4CC[C@H](N5CCN(CC6CC6)CC5)CC4)c3)nc2N1C1CCNCC1 [Example 127, N-{trans-4-[4-(cyclopropylmethyl)piperazin-1-yl]cyclohexyl}-3-{[(3R)-1,3-dimethyl-2-oxo-4-(piperidin-4-yl)-1,2,3,4-tetrahydropyrido[2,3-b]pyrazin-6-yl]amino}-benzenesulphonamide] | 90 nM | > 20000 nM | > 10000 nM | > 10000 nM | > 20000 nM |
| C[C@@H]1C(=O)N(C)c2ccc(Nc3cccc(C(=O)N[C@H]4CC[C@H](N5CCN(CC6CC6)CC5)CC4)c3)nc2N1c1ccc(F)cc1 [Example 93] | 2450 nM | 1180 nM | 410 nM | 800 nM | 539 nM |
| C[C@@H]1C(=O)N(C)c2ccc(Nc3cccc(C(=O)NC4CCN(C)CC4)c3)nc2N1Cc1ccccc1 [Example 73, 3-{[(3R)-4-benzyl-1,3-dimethyl-2-oxo-1,2,3,4-tetrahydropyrido[2,3-b]pyrazin-6-yl]amino}-N-(1-methylpiperidin-4-yl)benzamide] | 86 nM | 468 nM | 110 nM | 63 nM | 80 nM |
| CC1C(=O)N(C)c2ccc(Nc3cccc(C(=O)NC4CCN(C)CC4)c3)nc2N1c1ccccc1 (racemic) [Example 104, 3-[(1,3-dimethyl-2-oxo-4-phenyl-1,2,3.4-tetrahydropyrido[2,3-b]pyrazin-6-yl)amino]-A-(1-methylpiperidin-4-yl)benzamide] | 471 nM | 2430 nM | 1440 nM | 826 nM | – |
| C[C@@H]1C(=O)N(C)c2ccc(Nc3cccc(C(=O)NCCN(C)C)c3)nc2N1C1CCCC1 [Example 4, 3-{[(3R)-4-Cyclopentyl-1,3-dimethyl-2-oxo-1,2,3,4-tetrahydropyrido[2,3-b]pyrazin-6-yl]amino}-N-[2-(dimethylamino)ethyl]benzamide] | 101 nM | 778 nM | 535 nM | 249 nM | – |
| C[C@@H]1C(=O)N(C)c2ccc(Nc3cccc(S(=O)(=O)N[C@H]4CC[C@H](N5CCN(CC6CC6)CC5)CC4)c3)nc2N1C1CCOCC1 [Example 35, N-{trans-4-[4-(cyclopropylmethyl)-piperazin-1-yl]cyclohexyl}-3-{[(3R)-1,3-dimethyl-2-oxo-4-(tetrahydro-2H-pyran-4-yl)-1,2,3,4-tetrahydropyrido[2,3-b]pyrazin-6-yl]amino}-benzenesulphonamide] | 69 nM | 146 nM | 140 nM | 23 nM | – |
| Cc1nnc(-c2cccc(Nc3ccc4c(n3)N(C3CCOCC3)[C@H](C)C(=O)N4C)c2)o1 [Example 134, (3R)-1,3-Dimethyl-6-{[3-(5-methyl-1,3,4-oxadiazol-2-yl)phenyl]amino}-4-(tetrahydro-2H-pyran-4-yl)-3,4-dihydropyrido[2,3-b]pyrazin-2(1H)-one] | 191 nM | 768 nM | 546 nM | 453 nM | – |
| CC(C)N1c2nc(Nc3cccc(C(=O)N4CCN(CC5CC5)CC4)c3)ccc2N(C)C(=O)[C@H]1C [Example 88, (3R)-6-[(3-{[4-(cyclo-propylmethyl)piperazin-1-yl]carbonyl}phenyl)amino]-4-isopropyl-1,3-dimethyl-3,4-dihydropyrido[2,3-b]pyrazin-2(1H)-one] | 177 nM | 1620 nM | 2080 nM | 876 nM | – |
| CC(C)N1c2nc(Nc3cccc(C(=O)N4CCN(C)CC4)c3)ccc2N(C)C(=O)[C@H]1C [Example 77, (3R)-4-isopropl-1,3-dimethyl-6-({3-[(4-methylpiperazin-1-yl)carbonyl]phenyl}-amino)-3,4-dihydro-pyrido[2,3-b]pyrazin-2(1H)-one] | 118 nM | 973 nM | 1010 nM | 494 nM | – |

The remaining molecules from weak to strong by IC50 [1], led by results:

| IC50 [1] | IC50 (B16F10 cells) | IC50 (MOLM-13 cells) | SMILES | IC50 (MOLP-8 cells) | IC50 (CHL-1 cells) |
| --- | --- | --- | --- | --- | --- |
| 69 nM | 135 nM | 45 nM | COc1ccc(S(=O)(=O)N2CCN(C)CC2)cc1Nc1ccc2c(n1)N(C1CCN(C)CC1)[C@H](C)C(=O)N2C [Example 46, (3R)-6-({2-methoxy-5-[(4-methylpiperazin-1-yl)sulphonyl]phenyl}-amino)-1,3-dimethyl-4-(1-methylpiperidin-4-yl)-3,4-dihydropyrido[2,3-b]pyrazin-2(1H)-one] | 33 nM | 64 nM |
| 55 nM | 661 nM | 613 nM | C[C@@H]1C(=O)N(C)c2ccc(Nc3cccc(C(=O)N4CCN(C)CC4)c3)nc2N1C1CCCC1 [Example 1, (3R)-4-Cyclopentyl-1,3-dimethyl-6-({3-[(4-methylpiperazin-1-yl)carbonyl]phenyl}amino)-3,4-dihydropyrido[2,3-b]pyrazin-2(1H)-one] | 337 nM | – |
| 48 nM | 190 nM | 20 nM | C[C@@H]1C(=O)N(C)c2ccc(Nc3cccc(S(=O)(=O)N[C@H]4CC[C@H](N5CCN(CC6CC6)CC5)CC4)c3)nc2N1Cc1ccccc1 [Example 38, 3-{[(3R)-4-benzyl-1,3-dimethyl-2-oxo-1,2,3,4-tetrahydropyrido[2,3-b]pyrazin-6-yl]amino}-N-{trans-4-[4-(cyclopropyl-methyl)piperazin-1-yl]cyclohexyl}-benzenesulphonamide] | 12 nM | 19 nM |
| 46 nM | > 20000 nM | > 20000 nM | C[C@@H]1C(=O)N(C)c2ccc(Nc3cccc(S(=O)(=O)NC4CCN(C)CC4)c3)nc2N1C1CCNCC1 [Example 124, 3-{[(3R)-1,3-dimethyl-2-oxo-4-(piperidin-4-yl)-1,2,3,4-tetrahydropyrido[2,3-b]pyrazin-6-yl]amino}-N-(1-methylpiperidin-4-yl)benzenesulphonamide] | > 20000 nM | > 20000 nM |
| 40 nM | 60 nM | 41 nM | C[C@@H]1C(=O)N(C)c2ccc(Nc3cccc(S(=O)(=O)N4CCCC4)c3)nc2N1C1CCOCC1 [Example 27, (3R)-1,3-Dimethyl-6-{[3-(pyrrolidin-1-ylsulphonyl)phenyl]amino}-4-(tetrahydro-2H-pyran-4-yl)-3,4-dihydropyrido[2,3-b]pyrazin-2(1H)-one] | 30 nM | 23 nM |
| 39 nM | 44 nM | 47 nM | CCNS(=O)(=O)c1cccc(Nc2ccc3c(n2)N(C2CCOCC2)[C@H](C)C(=O)N3C)c1 [Example 23, 3-{[(3R)-1,3-dimethyl-2-oxo-4-(tetrahydro-2H-pyran-4-yl)-1,2,3,4-tetrahydropyrido[2,3-b]pyrazin-6-yl]amino}-N-ethylbenzenesulphonamide] | 37 nM | 50 nM |
| 32 nM | 71 nM | 53 nM | C[C@@H]1C(=O)N(C)c2ccc(Nc3cccc(S(=O)(=O)N(C)C)c3)nc2N1C1CCOCC1 [Example 6, 3-{[(3R)-1,3-Dimethyl-2-oxo-4-(tetrahydro-2H-pyran-4-yl)-1,2,3,4-tetrahydropyrido[2,3-b]pyrazin-6-yl]amino}-N,N-dimethylbenzenesulphonamide] | 37 nM | – |
